Experimental data from patent publication US8524740B2, “Synthesis and anticancer activity of aryl and heteroaryl-quinolin derivatives” (Tairx, Inc., priority 2010, dated 2013).

Key:
Detroit 551 = assay: MTT assay, Detroit 551 normal human cells; format: cell-based; conditions: Detroit 551
Description: (§1) MTT (3-(4,5-Dimethylthiazol-2-yl)-2,5-diphenyltetrazolium bromide) assays.^21,22 HL-60, HCT-116, Hep 3B, H460, Detroit 551 and HT29/FuR cells were treated with tested compounds for the indicated periods. After treatment, cells were washed once with PBS and incubated with MTT (Sigma, St. Louis, Mo., USA) for 2 h. The formazan precipitate was dissolved in 150 μL of DMSO, and the absorbance was measured with an ELISA reader at 570 nm.
(§2) HL-60, Hep 3B, H460, MES-SA, MES-SAID x5 and Detroit 551 cells were treated with vehicle or test compounds for 48 h. The cell growth rate was determined by MTT (3-(4,5-dimethyl-thiazol-2-yl)-2,5-diphenyltetrazoliun bromide) reduction assay.
(§3) MTT (3-(4,5-Dimethylthiazol-2-yl)-2,5-diphenyltetrazolium bromide) assays. HL-60, Hep 3B, H460, A498, Colo205 and Detroit 551 cells were treated with tested compounds for the indicated periods. After treatment, cells were washed once with PBS and incubated with MTT (Sigma, St. Louis, Mo., USA) for 2 h. The formazan precipitate was dissolved in 150 μL of DMSO, and the absorbance was measured with an ELISA reader at 570 nm.

HCT116 = assay: MTT assay, HCT-116 cells; format: cell-based; conditions: Homo sapiens, Table 1, 48 h
Description: as §1
(§4) MTT (3-(4,5-Dimethylthiazol-2-yl)-2,5-diphenyltetrazolium bromide) assays. HL-60, HCT-116, A549, Hep 3B, KB, Kb-VIN and DU145 cells were treated with tested compounds for the indicated periods. After treatment, cells were washed once with PBS and incubated with MTT (Sigma, St. Louis, Mo., USA) for 2 h. The formazan precipitate was dissolved in 150 μL of DMSO, and the absorbance was measured with an ELISA reader at 570 nm.

H460 = assay: MTT assay, H460 cells; format: cell-based; conditions: Homo sapiens, NCI-H460
Description: as §1, §2, §3

Hep3B = assay: MTT assay, Hep 3B cells; format: cell-based; conditions: Homo sapiens
Description: as §1, §2, §4, §3

[1] = test system: HL-60, HCT-116, Hep3B, H-460; assay: Cytotoxicity screen (MTT) against human cancer cell lines, results in words; format: cell-based; conditions: comparison within sub-series or with CHM-2133
Description: as §1, §2

HT29/5FuR = assay: MTT assay, HT29/5FuR cells; format: cell-based; conditions: Homo sapiens, HT-29, Table 1, 48 h
Description: as §1

HL-60 = assay: MTT assay, HL-60 cells; format: cell-based; conditions: Homo sapiens
Description: as §1, §2, §4, §3

MES-SA = assay: MTT assay, MES-SA cells; format: cell-based; conditions: Homo sapiens, 48 hrs
Description: as §2

MES-SA/Dx5 = assay: MTT assay, MES-SA/Dx5 cells; format: cell-based, human; conditions: for IC50: Homo sapiens, MES-SA/Dx5, 48 hrs; for Ratio Of SA/Dx5: IC50 MES-SA/Dx5 over IC50 MES-SA
Description: as §2

[2] = Table 1, 48 h, MTT, normal human cell
[3] = Homo sapiens, Table 2, B-1 series, 48 hrs
[4] = Homo sapiens, Table 3, B-2 series, 48 hrs

Row | SMILES | melting point [°C] | IC50 (Detroit 551; [2]) [µM] | IC50 (HCT116) [µM] | IC50 (H460; Table 1, 48 h, MTT) [µM] | IC50 (Hep3B; Table 1, 48 h, MTT) [µM] | cytotoxicity (in words) [1] | IC50 (HT29/5FuR) [µM] | IC50 (HL-60; Table 1, 48 h, MTT) [µM] | IC50 (Detroit 551; [3]) [µM] | IC50 (MES-SA; Table 2, B-1 series) [µM] | IC50 (H460; Table 2, B-1 series, 48 hrs) [µM] | IC50 (HL-60; Table 2, B-1 series, 48 hrs) [µM] | IC50 (MES-SA/Dx5; Table 2, B-1 series) [µM] | IC50 (Detroit 551; [4]) [µM] | IC50 (MES-SA; Table 3, B-2 series) [µM] | IC50 (H460; Table 3, B-2 series, 48 hrs) [µM] | IC50 (Hep3B; Table 3, B-2 series, 48 hrs) [µM] | IC50 (HL-60; Table 3, B-2 series, 48 hrs) [µM] | IC50 (MES-SA/Dx5; Table 3, B-2 series) [µM] | Ratio Of SA/Dx5 (MES-SA/Dx5; Table 3, B-2 series) | further results
1 | O=C1CC(c2cccc(F)c2)=Nc2ccc3c(c21)OCO3 [Compound 20, 2-(3-Fluorophenyl)-5,6-methylenedioxyquinolin-4-one] | 286 to 288 | > 5 | 2.5 | 3.2 | 2.4 | significant cytotoxicity | 0.82 | 0.7 | – | – | – | – | – | – | – | – | – | – | – | – | –
2 | O=C1CC(c2ccc(F)cc2)=Nc2ccc3c(c21)OCO3 [Compound 21, 2-(4-Fluorophenyl)-5,6-methylenedioxyquinolin-4-one] | 286 to 288 | > 10 | > 10 | > 10 | > 10 | weaker | 0.53 | > 10 | – | – | – | – | – | – | – | – | – | – | – | – | –
3 | COc1cc2c(cc1O)N=C(c1ccccc1F)CC2=O [Compound 43, 2-(2-Fluorophenyl)-7-hydroxy-6-methoxyquinolin-4-one] | 277 to 279 | 29.7 | 5.8 | 4.4 | 5.3 | greater cytotoxicity | 0.29 | 1.3 | – | – | – | – | – | – | – | – | – | – | – | – | –
4 | COc1cc2c(cc1O)N=C(c1cccc(F)c1)CC2=O [Compound 44, 2-(3-Fluorophenyl)-7-hydroxy-6-methoxyquinolin-4-one] | 326 to 328 | 10 | 1.1 | 4.8 | 5.3 | greater cytotoxicity | 0.3 | 0.9 | – | – | – | – | – | – | – | – | – | – | – | – | –
5 | COc1cc2c(cc1O)N=C(c1ccc(F)cc1)CC2=O [Compound 45, 2-(4-Fluorophenyl)-7-hydroxy-6-methoxyquinolin-4-one] | 352 to 354 | > 100 | > 100 | > 100 | > 100 | weaker | 0.37 | 38.2 | – | – | – | – | – | – | – | – | – | – | – | – | –
6 | O=C1CC(c2cccc3c2OCO3)=Nc2ccc(N3CCOCC3)cc21 [Compound 124, 2-(Benzo[d][1,3]-dioxol-4-yl)-6-morpholinoquinolin-4-one] | 350 to 352 | – | – | – | – | – | – | – | > 2.5 | 2.35 | 2.13 | 0.72 | 2.1 | – | – | – | – | – | – | – | IC50 (Hep3B; Table 2, B-1 series, 48 hrs): 1.5 µM; Ratio Of SA/Dx5 (MES-SA/Dx5; Table 2, B-1 series): 0.89
7 | O=C1CC(c2cccc3c2OCO3)=Nc2ccc(N3CCCC3)cc21 [Compound 125, 2-(Benzo[d][1,3]-dioxol-4-yl)-6-pyrrolidinoquinolin-4-one] | 330 to 332 | – | – | – | – | – | – | – | – | – | – | – | – | > 2.5 | 0.1 | 0.2 | 0.2 | 0.08 | 0.183 | 1.83 | –
8 | COc1cccc(C2=Nc3ccc(N4CCOCC4)cc3C(=O)C2)c1OC [Compound 126, 2-(2,3-Dimethoxyphenyl)-6-morpholinoquinolin-4-one] | 235 to 236 | – | – | – | – | – | – | – | > 50 | 5 | 17.4 | 5.22 | 17.5 | – | – | – | – | – | – | – | IC50 (Hep3B; Table 2, B-1 series, 48 hrs): 9.8 µM; Ratio Of SA/Dx5 (MES-SA/Dx5; Table 2, B-1 series): 3.49
9 | COc1cccc(C2=Nc3ccc(N4CCCC4)cc3C(=O)C2)c1OC [Compound 127, 2-(2,3-Dimethoxyphenyl)-6-pyrrolidinoquinolin-4-one] | 258 to 260 | – | – | – | – | – | – | – | – | – | – | – | – | > 20 | 0.802 | 1.78 | 1.2 | 0.53 | 1.71 | 2.13 | –
10 | COc1ccc(OC)c(C2=Nc3ccc(N4CCOCC4)cc3C(=O)C2)c1 [Compound 128, 2-(2,5-Dimethoxyphenyl)-6-morpholinoquinolin-4-one] | – | – | – | – | – | – | – | – | 16.6 | 2.03 | 3.47 | 1.2 | 8.21 | – | – | – | – | – | – | – | IC50 (Hep3B; Table 2, B-1 series, 48 hrs): 3.11 µM; Ratio Of SA/Dx5 (MES-SA/Dx5; Table 2, B-1 series): 4.04
11 | COc1ccc(OC)c(C2=Nc3ccc(N4CCCC4)cc3C(=O)C2)c1 [Compound 129, 2-(2,5-Dimethoxyphenyl)-6-pyrrolidinoquinolin-4-one] | 272 to 274 | – | – | – | – | – | – | – | – | – | – | – | – | 5 | 0.229 | 0.19 | 0.22 | 0.006 | 0.216 | 0.94 | –
12 | COc1ccccc1C1=Nc2ccc(N3CCOCC3)cc2C(=O)C1 [Compound 130, 2-(2-Methoxyphenyl)-6-morpholinoquinolin-4-one] | 262 to 264 | – | – | – | – | – | – | – | > 20 | 2.5 | 7.36 | 2.48 | 9.71 | – | – | – | – | – | – | – | Ratio Of SA/Dx5 (MES-SA/Dx5; Table 2, B-1 series): 3.88
13 | COc1ccccc1C1=Nc2ccc(N3CCCC3)cc2C(=O)C1 [Compound 131, 2-(2-Methoxyphenyl)-6-pyrrolidinoquinolin-4-one] | 312 to 313 | – | – | – | – | – | – | – | – | – | – | – | – | > 10 | 0.445 | 0.57 | 0.3 | 0.13 | 0.451 | 1.01 | –
14 | O=C1CC(c2ccccc2O)=Nc2ccc(N3CCOCC3)cc21 [Compound 134, 2-(2-Hydroxyphenyl)-6-morpholinoquinolin-4-one] | – | – | – | – | – | – | – | – | > 100 | 2.38 | 8.3 | 2.1 | 10.4 | – | – | – | – | – | – | – | IC50 (Hep3B; Table 2, B-1 series, 48 hrs): 8.78 µM; Ratio Of SA/Dx5 (MES-SA/Dx5; Table 2, B-1 series): 4.38
15 | O=C1CC(c2ccccc2O)=Nc2ccc(N3CCCC3)cc21 [Compound 135, 2-(2-Hydroxyphenyl)-6-pyrrolidinoquinolin-4-one] | 304 to 306 | – | – | – | – | – | – | – | – | – | – | – | – | 25 | 0.846 | 0.86 | 1.31 | 0.36 | 1 | 1.18 | –
16 | O=C1CC(c2cc(O)ccc2O)=Nc2ccc(N3CCOCC3)cc21 [Compound 144a, 2-(2,5-dihydroxyphenyl)-6-morpholinoquinolin-4-one] | – | – | – | – | – | – | – | – | – | – | – | – | – | 9.1 | 3.69 | 6.5 | 7.38 | 1.62 | 25 | 6.78 | –
